Source: patent publication US20050112573A1, “Method of detecting toxic substance” (priority 2001, published 2005)

Test system: yeast genes (level of expressed mRNA)
Experiment: DNA chip analysis of expressed mRNA of yeast genes after 2 h culture with a toxic chemical substance
Type: cell-based, Saccharomyces cerevisiae S288C
In short: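 S. cerevisiae S288C in YPD at 25 °C was exposed at log phase for 2 h to a growth-inhibiting, non-lethal concentration of the chemical. Poly(A) mRNA was reverse-transcribed with Cy3- or Cy5-dUTP and hybridized to a whole-genome yeast DNA chip (65 °C, >12 h). Values are fluorescence ratios versus untreated cells.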

## HgCl2 [(3)]
Yeast gene YKL086W, ratio to control without chemical
  The level of expressed mRNA in the presence of chemical substance/: 2.4
Yeast gene YKL096W
  The level of expressed mRNA in the presence of chemical substance/The level of expressed mRNA in the absence of chemical substance: 8.1
Yeast gene YKL151C, ratio to control without chemical substance, 2 h culture
  The level of expressed mRNA in the presence of chemical substance/: 1.7
Yeast gene YKL153W, ratio to control without chemical substance, 2 h culture
  The level of expressed mRNA in the presence of chemical substance/: 2.0
Yeast gene YKL165C
  The level of expressed mRNA in the presence of chemical substance/The level of expressed mRNA in the absence of chemical substance: 1.1
Yeast gene YKL193C
  The level of expressed mRNA in the presence of chemical substance/The level of expressed mRNA in the absence of chemical substance: 1.1
Yeast gene YKL195W, ratio to control without chemical substance, 2 h culture
  The level of expressed mRNA in the presence of chemical substance/: 0.4
Yeast gene YKR009C
  The level of expressed mRNA in the presence of chemical substance/in the absence of chemical substance: 1.5
Yeast gene YKR091W, ratio to control without chemical
  The level of expressed mRNA in the presence of chemical substance/: 0.9
Yeast gene YLR054C, ratio to control without chemical substance, 2 h culture
  The level of expressed mRNA in the presence of chemical substance/: 0.4
Yeast gene YLR120C
  The level of expressed mRNA in the presence of chemical substance/The level of expressed mRNA in the absence of chemical substance: 2.4
Yeast gene YLR136C
  The level of expressed mRNA in the presence of chemical substance/The level of expressed mRNA in the absence of chemical substance: 0.6
Yeast gene YLR149C, ratio to control without chemical substance, 2 h culture
  The level of expressed mRNA in the presence of chemical substance/: 3.4
Yeast gene YLR152C, ratio to control without chemical substance, 2 h culture
  The level of expressed mRNA in the presence of chemical substance/: 1.1
Yeast gene YLR178C
  The level of expressed mRNA in the presence of chemical substance/The level of expressed mRNA in the absence of chemical substance: 8.8
Yeast gene YLR194C, ratio to control without chemical
  The level of expressed mRNA in the presence of chemical substance/: 1.3
Yeast gene YLR250W
  The level of expressed mRNA in the presence of chemical substance/The level of expressed mRNA in the absence of chemical substance: 1.0
Yeast gene YLR324W, ratio to control without chemical substance, 2 h culture
  The level of expressed mRNA in the presence of chemical substance/: 0.9
Yeast gene YLR327C
  The level of expressed mRNA in the presence of chemical substance/The level of expressed mRNA in the absence of chemical substance: 14.4
Yeast gene YLR350W, ratio to control without chemical substance, 2 h culture
  The level of expressed mRNA in the presence of chemical substance/: 3.2
Yeast gene YLR351C
  The level of expressed mRNA in the presence of chemical substance/in the absence of chemical substance: 1.3
Yeast gene YLR356W
  The level of expressed mRNA in the presence of chemical substance/The level of expressed mRNA in the absence of chemical substance: 4.9
Yeast gene YLR362W
  The level of expressed mRNA in the presence of chemical substance/The level of expressed mRNA in the absence of chemical substance: 1.0
Yeast gene YLR375W
  The level of expressed mRNA in the presence of chemical substance/in the absence of chemical substance: 0.9
Yeast gene YLR387C, ratio to control without chemical substance, 2 h culture
  The level of expressed mRNA in the presence of chemical substance/: 0.8
Yeast gene YLR391W
  The level of expressed mRNA in the presence of chemical substance/The level of expressed mRNA in the absence of chemical substance: 2.9
Yeast gene YLR429W
  The level of expressed mRNA in the presence of chemical substance/The level of expressed mRNA in the absence of chemical substance: 0.6
Yeast gene YLR460C, ratio to control without chemical substance, 2 h culture
  The level of expressed mRNA in the presence of chemical substance/: 2.0
Yeast gene YML117W, ratio to control without chemical substance, 2 h culture
  The level of expressed mRNA in the presence of chemical substance/: 0.9
Yeast gene YMR004W
  The level of expressed mRNA in the presence of chemical substance/The level of expressed mRNA in the absence of chemical substance: 1.3
Yeast gene YMR009W, ratio to control without chemical substance, 2 h culture
  The level of expressed mRNA in the presence of chemical substance/: 0.5
Yeast gene YMR067C, ratio to control without chemical substance, 2 h culture
  The level of expressed mRNA in the presence of chemical substance/: 1.1
Yeast gene YMR090W, ratio to control without chemical substance, 2 h culture
  The level of expressed mRNA in the presence of chemical substance/: 2.3
Yeast gene YMR094W
  The level of expressed mRNA in the presence of chemical substance/The level of expressed mRNA in the absence of chemical substance: 1.3
Yeast gene YMR095C, ratio to control without chemical
  The level of expressed mRNA in the presence of chemical substance/: 1.6
Yeast gene YMR097C, ratio to control without chemical substance, 2 h culture
  The level of expressed mRNA in the presence of chemical substance/: 0.7
Yeast gene YMR102C, ratio to control without chemical substance, 2 h culture
  The level of expressed mRNA in the presence of chemical substance/: 1.1
Yeast gene YMR104C
  The level of expressed mRNA in the presence of chemical substance/The level of expressed mRNA in the absence of chemical substance: 2.2
Yeast gene YMR107W, ratio to control without chemical substance, 2 h culture
  The level of expressed mRNA in the presence of chemical substance/: 1.7
Yeast gene YMR180C, ratio to control without chemical substance, 2 h culture
  The level of expressed mRNA in the presence of chemical substance/: 1.0
Yeast gene YMR184W, ratio to control without chemical substance, 2 h culture
  The level of expressed mRNA in the presence of chemical substance/: 1.0
Yeast gene YMR191W, ratio to control without chemical substance, 2 h culture
  The level of expressed mRNA in the presence of chemical substance/: 1.9
Yeast gene YMR219W
  The level of expressed mRNA in the presence of chemical substance/The level of expressed mRNA in the absence of chemical substance: 1.0
Yeast gene YMR226C
  The level of expressed mRNA in the presence of chemical substance/The level of expressed mRNA in the absence of chemical substance: 1.4
Yeast gene YMR267W
  The level of expressed mRNA in the presence of chemical substance/in the absence of chemical substance: 0.7
Yeast gene YMR275C
  The level of expressed mRNA in the presence of chemical substance/The level of expressed mRNA in the absence of chemical substance: 1.2
Yeast gene YMR276W
  The level of expressed mRNA in the presence of chemical substance/The level of expressed mRNA in the absence of chemical substance: 1.5
Yeast gene YMR278W
  The level of expressed mRNA in the presence of chemical substance/in the absence of chemical substance: 1.4
Yeast gene YMR293C
  The level of expressed mRNA in the presence of chemical substance/in the absence of chemical substance: 1.6
Yeast gene YMR295C, ratio to control without chemical substance, 2 h culture
  The level of expressed mRNA in the presence of chemical substance/: 1.2
Yeast gene YMR314W
  The level of expressed mRNA in the presence of chemical substance/The level of expressed mRNA in the absence of chemical substance: 0.9
Yeast gene YMR316W, ratio to control without chemical substance, 2 h culture
  The level of expressed mRNA in the presence of chemical substance/: 1.1
Yeast gene YNL006W
  The level of expressed mRNA in the presence of chemical substance/The level of expressed mRNA in the absence of chemical substance: 1.3
Yeast gene YNL007C
  The level of expressed mRNA in the presence of chemical substance/The level of expressed mRNA in the absence of chemical substance: 5.1
Yeast gene YNL044W, ratio to control without chemical substance, 2 h culture
  The level of expressed mRNA in the presence of chemical substance/: 2.3
